{"source": "patent US20150111750A1", "about": "“Substituted N-(tetrazol-5-yl)- and N-(triazol-5-yl)hetarylcarboxamide compounds and their use as herbicides” (BASF SE, priority 2012, published 2015)", "key": {"Amaranthus retroflexus": {"test_system": "Amaranthus retroflexus", "assay": "Greenhouse post-emergence treatment of Amaranthus retroflexus", "format": "in vivo", "conditions": "application rate 1000 g/ha, scale 0 (no damage) to 100 (complete destruction)", "text": "(§1) The seeds of the test plants were sown separately for each species. For the post-emergence treatment, the test plants were first grown to a height of 3 to 15 cm, depending on the plant habit, and only then treated with the active ingredients which had been suspended or emulsified in water. For this purpose, the test plants were either sown directly and grown in the same containers, or they were first grown separately as seedlings and transplanted into the test containers a few days prior to treatment. Depending on the species, the plants were kept at 10-25° C. or 20-35° C. The test period extended over 2 to 4 weeks. During this time, the plants were tended, and their response to the individual treatments was evaluated. Evaluation was carried out using a scale from 0 to 100. 100 means no emergence of the plants, or complete destruction of at least the aerial moieties, and 0 means no damage, or normal course of growth. A good herbicidal activity is given at values of at least 70 and a very good herbicidal activity is given at values of at least 85. The plants used in the greenhouse experiments belonged to the following species: [table]"}, "Echinochloa crus-galli": {"test_system": "Echinochloa crus-galli", "assay": "Greenhouse post-emergence treatment of Echinochloa crus-galli", "format": "in vivo", "conditions": "application rate 1000 g/ha, scale 0 (no damage) to 100 (complete destruction)", "text": "as §1"}}, "data": [{"smiles": "Cn1ncnc1NC(=O)c1cnc(Cl)cc1Cl", "note": "[I.5-1, 4,6-dichloro-N-(2-methyl-1,2,4-triazol-3-yl)pyridine-3-carboxamide]", "values": [{"measurement": "damage [%]", "setting": "Amaranthus retroflexus", "value": 65, "unit": "%"}, {"measurement": "damage [%]", "setting": "Echinochloa crus-galli", "value": 30, "unit": "%"}]}]}
